# Results published in the supplement of paper PMC10307832.
# Experiments:
# Experiment in all cases: relative viability (nuclei count vs DMSO), 5 days (fraction); higher = more cells survive
# [1] = compound: C[C@H]([C@@H](C(=O)N)NC(=O)[C@@H]1CSSC[C@@H](C(=O)N[C@H](C(=O)N[C@@H](C(=O)N[C@H](C(=O)N1)CCCCN)CC2=CNC3=CC=CC=C32)CC4=CC=C(C=C4)O)NC(=O)[C@@H](CC5=CC=CC=C5)N)O [CAP-232] + CC(=O)Nc1cccc(-n2c(=O)n(C3CC3)c(=O)c3c(Nc4ccc(I)cc4F)n(C)c(=O)c(C)c32)c1 [Trametinib] (partner 0.02 µM)
# Procedure, shortened: (§1)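 A single step with final 0.05% Triton X-100, 1% formaldehyde and 1 ug/ml Hoechst fixed the cells and stained nuclei 5 days after treatment. Lung cancer cell lines in 1536-well plates had been treated by pin tool the day after seeding with one drug alone or a fixed anchor-drug dose plus five library-drug doses (not always all listed) in √10 steps, and nuclei were counted on 4× images. Relative viability is the ratio of nuclei in treated wells to nuclei in vehicle wells, taken as the median of duplicate plates.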
# [2] = compound: C[C@H]([C@@H](C(=O)N)NC(=O)[C@@H]1CSSC[C@@H](C(=O)N[C@H](C(=O)N[C@@H](C(=O)N[C@H](C(=O)N1)CCCCN)CC2=CNC3=CC=CC=C32)CC4=CC=C(C=C4)O)NC(=O)[C@@H](CC5=CC=CC=C5)N)O [CAP-232] + CCNC(=O)c1noc(-c2cc(C(C)C)c(O)cc2O)c1-c1ccc(CN2CCOCC2)cc1 [Luminespib] (partner 0.01 µM)
# Procedure, shortened: as §1
# [3] = compound: C[C@H]([C@@H](C(=O)N)NC(=O)[C@@H]1CSSC[C@@H](C(=O)N[C@H](C(=O)N[C@@H](C(=O)N[C@H](C(=O)N1)CCCCN)CC2=CNC3=CC=CC=C32)CC4=CC=C(C=C4)O)NC(=O)[C@@H](CC5=CC=CC=C5)N)O [CAP-232] + CC(=O)c1c(C)c2cnc(Nc3ccc(N4CCNCC4)cn3)nc2n(C2CCCC2)c1=O [Palbociclib] (partner 0.5 µM)
# Procedure, shortened: as §1
# [4] = compound: C[C@H]([C@@H](C(=O)N)NC(=O)[C@@H]1CSSC[C@@H](C(=O)N[C@H](C(=O)N[C@@H](C(=O)N[C@H](C(=O)N1)CCCCN)CC2=CNC3=CC=CC=C32)CC4=CC=C(C=C4)O)NC(=O)[C@@H](CC5=CC=CC=C5)N)O [CAP-232] + CS(=O)(=O)CCNCc1ccc(-c2ccc3ncnc(Nc4ccc(OCc5cccc(F)c5)c(Cl)c4)c3c2)o1 [Lapatinib] (partner 2 µM)
# Procedure, shortened: as §1
# [5] = compound: C[C@H]([C@@H](C(=O)N)NC(=O)[C@@H]1CSSC[C@@H](C(=O)N[C@H](C(=O)N[C@@H](C(=O)N[C@H](C(=O)N1)CCCCN)CC2=CNC3=CC=CC=C32)CC4=CC=C(C=C4)O)NC(=O)[C@@H](CC5=CC=CC=C5)N)O [CAP-232] + CS(=O)(=O)N1CCN(Cc2cc3nc(-c4cccc5[nH]ncc45)nc(N4CCOCC4)c3s2)CC1 [Pictilisib] (partner 1 µM)
# Procedure, shortened: as §1
Cell Line,relative viability ([1]; first compound 0.4 µM),relative viability ([1]; first compound 1.265 µM),relative viability ([1]; first compound 4 µM),relative viability ([1]; first compound 12.65 µM),relative viability ([2]; first compound 0.4 µM),relative viability ([2]; first compound 1.265 µM),relative viability ([2]; first compound 4 µM),relative viability ([2]; first compound 12.65 µM),relative viability ([3]; first compound 0.4 µM),relative viability ([3]; first compound 1.265 µM),relative viability ([3]; first compound 4 µM),relative viability ([3]; first compound 12.65 µM),relative viability ([4]; first compound 0.4 µM),relative viability ([4]; first compound 1.265 µM),relative viability ([4]; first compound 4 µM),relative viability ([4]; first compound 12.65 µM),relative viability ([5]; first compound 0.4 µM),relative viability ([5]; first compound 1.265 µM),relative viability ([5]; first compound 4 µM),relative viability ([5]; first compound 12.65 µM)
HCC-44,0.997,1.02,1.06,1.04,1.35,1.01,0.759,1,1,1.05,0.92,0.937,1.14,1.03,1.05,0.987,0.675,0.616,0.428,0.594
HCC-78,0.688,0.824,0.918,0.727,–,–,–,–,0.481,0.496,0.552,0.49,0.809,0.338,0.878,0.695,0.206,0.178,0.21,0.195
HCC-366,0.365,0.419,0.327,0.349,–,–,–,–,0.454,0.362,0.41,0.331,1.17,1.05,1.02,1,0.133,0.154,0.148,0.189
HCC-827,0.469,0.543,0.491,0.549,0.629,0.66,0.659,0.749,0.423,0.498,0.461,0.514,0.224,0.175,0.177,0.177,0.842,1.1,0.896,1.05
HOP-62,0.333,0.348,0.382,0.423,0.957,0.917,1.13,0.908,0.491,0.42,0.436,0.386,1.06,–,1.33,0.996,0.575,–,0.741,0.84
IA-LM,–,–,–,–,–,–,–,–,–,–,–,–,0.79,0.705,0.928,0.292,0.359,0.365,0.39,0.146
LC-2-ad,0.967,0.925,0.936,0.884,1.03,1.07,0.965,0.561,0.478,0.517,0.473,0.513,1.07,0.891,0.949,1.09,0.404,0.409,0.63,0.458
LCLC-97TM1,0.143,0.184,0.154,0.188,0.799,0.819,0.804,0.799,0.243,0.22,0.187,0.248,1.13,1.15,1.05,0.946,0.217,0.193,0.232,0.193
LCLC-103H,0.662,0.666,0.723,0.703,1.04,0.989,0.902,1.07,0.469,0.429,0.487,0.485,–,–,–,–,0.707,0.564,0.536,0.595
LK-2,0.438,0.687,0.711,0.563,0.176,0.207,0.19,0.183,0.595,0.802,0.576,0.783,0.942,1.06,0.808,0.759,0.42,0.608,0.494,0.61
LOU-NH91,0.834,0.811,0.783,0.445,0.335,0.271,0.341,0.326,0.525,0.482,0.522,0.39,0.781,0.771,0.821,0.639,0.479,0.512,0.501,0.438
NCI-H441,0.431,0.41,0.479,0.501,0.388,0.329,0.382,0.382,0.209,0.19,0.257,0.214,–,–,–,–,0.411,0.462,0.412,0.385
NCI-H522,0.772,0.856,0.607,0.726,1.08,1.11,1.15,1.3,0.982,0.929,1.05,0.848,–,–,–,–,–,–,–,–
NCI-H596,0.901,0.675,0.851,0.765,1.03,1.03,0.988,0.901,–,–,–,–,1.13,1.03,1.01,0.974,0.421,0.388,0.36,0.328
NCI-H1563,–,–,–,–,0.461,0.52,0.455,0.462,–,–,–,–,1.09,0.862,1.07,0.635,0.677,0.626,0.689,0.486
NCI-H1703,–,–,–,–,–,–,–,–,–,–,–,–,1.44,1.01,1.21,0.882,0.245,0.224,0.269,0.261
NCI-H2342,0.788,0.746,0.766,0.787,0.786,0.765,0.719,0.699,0.45,0.509,0.497,0.487,–,–,–,–,–,–,–,–
SW 900,0.75,0.93,0.677,0.767,0.171,0.185,0.187,0.169,0.528,0.481,0.512,0.465,–,–,–,–,–,–,–,–
